Results: patent US20070042962A1, “Peptide dependent upregulation of telomerase expression” (priority 2002, published 2007)
Ends that are not written are not given here.

Key:
telomerase [1] = test: TRAP telomerase assay in primary cortical rat brain cell cultures; format: cell-based; conditions: for upregulation of expression of telomerase (TRAP): primary rat brain cortical cultures, 1-70 μg/ml
Experimental: (§1) Telomerase activity was measured in total cellular lysates using a telomeric repeat amplification protocol (TRAP). DNA oligomer “TS” 18-mer (AATCCGTCGAGCAGAGTT) (SEQ ID NO:30) was end-labeled with P^32 in a 20 μl reaction containing 50 mM Tris-HCl (pH 7.5), 10 mM MgCl2, 0.1 mM EDTA, 1 mM DTT, 1 pmol TS primer, 1 pmol [γ-^32P]-ATP (4,500 Ci/mmol), and 5 U polynucleotide kinase (Ambion). The reaction was incubated for 20 minutes at 37° C., and then stopped by incubating for 5 minutes at 85° C. Labeled TS oligomer was stored at −20° C. until use.
(§2) Telomerase-induced hexamer extensions to the TS primer were performed in a 50 μl reaction volume containing 20 mM Tris-HCl (pH 8.3), 1.5 mM MgCl2, 63 mM KCl, 0.05% Tween-20, 1 mM EGTA, 50 μM dNTPs, 0.1 pmol ^32P-labeled TS primer, 1 pmol reverse primer RP (CTAACCCTAACCCTAACC) (SEQ ID NO:31), 1.0 μg cell lysate, and 2 U Taq polymerase (Ambion). The reaction was incubated for 30 minutes at 30° C. Hexamer extensions were then amplified by PCR using the following program: denaturation at 94° C. for 30 seconds, annealing at 59° C. for 30 seconds, 27 cycles denaturation/annealing. Radiolabeled ladders were separated by electrophoresis on 10% polyacrylamide gels, dried onto 3 MM paper, and visualized by autoradiography with Kodak X-Omat AR film. Exposure times averaged 4 hours at 25° C. Ladders were quantitated by excision from the gel, and counting in a Bench Count (Beckman).
The ability of representative peptide compounds described herein to upregulate telomerase was also tested in primary cortical cultures of rat brain using the TRAP telomerase assay described above.
[…] […] Negative control cultures were not exposed to a peptide compound during the growth period.
In this case, the P^32-labeled DNA precursors were incorporated into the series of hexamer base pairs showing the upregulation of the telomerase. The total radioactivity corresponding to base pairs ladders from 50 to 80 bp was measured by counting the particular region of the gel. […] The highest concentrations of peptide compound tested produced increasingly less upregulation of the enzyme, as is typically observed at some point along most dose response curves.

telomerase [2] = test: TRAP telomerase assay in mouse neuroblastoma cells (NB2a/DL); format: cell-based; conditions: CMX-1 100 μg/ml or CMX-3 70 μg/ml, 6 and 24 hours
Experimental: Telomerase activity was assayed in human cells and tumors by telomeric repeat amplification protocol (TRAP) (see, Piatsyzek, Methods in Cell Science, 17:1 (1995)). Whole cell lysates were prepared from approximately 10^6 Nb2a cells. Cells were washed once with PBS, repelleted, and 20 μl of lysate buffer (10 mM Tris-HCl pH 7.5, 1 mM MgCl2, 1 mM EGTA, 0.1 mM benzamidine, 5 mM β-mercaptoethanol, 0.5% CHAPS, 10% glycerol) was added directly to the washed pellets. The suspensions were incubated on ice for 30 minutes to allow cell swelling and lysis. Lysates were cleared by centrifugation at 12,000×g for 20 minutes at 4° C. Total protein concentration was determined for the cleared supernatant using a Coomassie Reagent protocol (Pierce). Supernatants were stored at −70° C.
Telomerase activity was measured in total cellular lysates using a telomeric repeat amplification protocol (TRAP). […]
Telomerase-induced hexamer extensions to the TS primer were performed in a 50 μl reaction volume containing 20 mM Tris-HCl (pH 8.3), 1.5 mM MgCl2, 63 mM KCl, 0.05% Tween-20, 1 mM EGTA, 50 μM dNTPs, 0.1 pmol ^32P-labeled TS primer, 1 pmol reverse primer RP (CTAACCCTAACCCTAACC) (SEQ ID NO:31), 1.0 μg cell lysate, and 2 U Taq polymerase (Ambion). […] Ladders were quantitated by excision from the gel, and counting in a Bench Count (Beckman). […]

catalase (CAT) = test: Immunoblotting of catalase in primary cortical rat brain cell cultures; format: cell-based; conditions: same nanogram amounts (1 ng/ml, 24 h), data not shown
[3] = system: glutathione peroxidase (GPX); conditions: rat brain cells; same nanogram amounts (1 ng/ml, 24 h); data not shown
Experimental: (§3) Primary cortical rat brain cell cultures were prepared as described above in Example 4 except that cells were cultured following a 24-hour exposure to 0 or 1 nanograms (ng)/ml of CMX-4. […] Positive control (“Pos”) represents the analysis of 1 μg of protein from a total cell lysate of immortalized HeLa cells.
(§4) In addition, the levels of antioxidative enzymes superoxide dismutase (SOD), catalase (CAT), and glutathione peroxidase (GPX) were determined using a standard immunoblotting protocol (see, Adams et al., J. Cell. Biochem., 77: 221-233 (2000)).

[4] = system: superoxide dismutase (SOD); conditions: rat brain cells; same nanogram amounts (1 ng/ml, 24 h); data not shown
Experimental: as §3, §4

telomerase [5] = test: TRAP telomerase assay of tissue homogenates from old mice orally treated for 30 days; format: in vivo, mouse
Experimental: as §1, §2
The ability of peptide compounds described herein to upregulate telomerase in old and young mice was also studied. Here, the old mice (17 months old) were treated daily by gavage for 30 days with an oral dose of peptide CMX-2 in saline at doses of 0, 0.03, 0.3, and 3.3 mg of peptide compound per kilogram (kg) of body weight. Control animals received saline only without peptide compound. Animals were sacrificed by decapitation after 30 days and dissected to isolate the brain, heart, and liver, which was frozen at −70° C. for subsequent analysis. […]
Telomerase activity was then measured in the cytoplasmic protein fraction of tissue homogenates.

## Asp Gly [CMX-3]
Telomerase [1]
  upregulation of expression of telomerase (TRAP): upregulated
Telomerase [1]; primary rat cortical cultures, 1 μg/ml (maximum effect)
  upregulation of telomerase over control at dose of maximum effect: 2 fold
Telomerase [2]
  upregulation of telomerase over control levels (TRAP): upregulated

## DGDGDFAIDAPE [CMX-1]
Telomerase [1]
  upregulation of expression of telomerase (TRAP): upregulated
Telomerase [1]; primary rat cortical cultures, 10 μg/ml
  increase in the level of telomerase expression relative to control levels: greater than 4 fold
Telomerase [1]; primary rat cortical cultures, 1, 10, 70 μg/ml
  shape of dose-response curve of telomerase upregulation: inverted U-shape
Telomerase [2]
  upregulation of telomerase over control levels (TRAP): upregulated

## R1 Asp Gly, wherein R1 is the iodine-substituted thyronine amino terminal capping group, 3,5,3′-triiodothyronine [CMX-4]
Telomerase [1]; primary cortical rat brain cells, 1 ng/ml, 24-hour exposure
  upregulation of telomerase (TRAP): effective at upregulating telomerase
Catalase (CAT)
  upregulation of catalase (CAT) compared to untreated control cells: upregulated
[3]
  upregulation of glutathione peroxidase (GPX) compared to untreated control cells: upregulated
[4]
  upregulation of superoxide dismutase (SOD) compared to untreated control cells: upregulated

## [Ac] Asp Gly Glu Ala (Ac-DGEA; listed as Homo sapiens) [CMX-2]
Telomerase [5]; 3.3 mg/kg body weight orally by gavage daily for 30 days, brain
  telomerase activity of brain tissue homogenates relative to untreated controls: 3.2 fold
Telomerase [5]; oral daily for 30 days, brain
  upregulation of telomerase in brain tissue: upregulated
Telomerase [5]; oral daily for 30 days, heart
  upregulation of telomerase in heart tissue: upregulated
